Results from ChEMBL document CHEMBL1201862, “PubChem BioAssay data set” (2004).
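Five concentrations, 48 hours, 96-well plates. GI50 is the concentration that inhibits growth by half.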 Activity calls are given as the source filed them. No stated cut-off is given here; in the data, active = GI50 up to about 1.1 µM and inactive = higher.

Experiments:
Experiment in all cases: growth of human tumour cells (NCI), 48 h
KM-20L2 = system: KM-20L2
CAKI-1 = system: CAKI-1
LXFL 529 = system: LXFL 529
SN12C = system: SN12C
HL-60 = system: HL-60
M19-MEL = system: M19-MEL
MOLT-4 = system: MOLT-4
SK-OV-3 = system: SK-OV-3
NCI-H226 = system: NCI-H226
HCT-15 = system: HCT-15
SNB-78 = system: SNB-78
786-0 = system: 786-0
UACC-257 = system: UACC-257

SMILES | GI50 (KM-20L2) | GI50 (CAKI-1) | GI50 (LXFL 529) | GI50 (SN12C) | GI50 (HL-60) | GI50 (M19-MEL) | GI50 (MOLT-4) | GI50 (SK-OV-3) | GI50 (NCI-H226) | GI50 (HCT-15) [µM] | GI50 (SNB-78) | GI50 (786-0) | GI50 (UACC-257)
COc1ccc(/C(Cl)=C(\C=O)c2ccc(Cl)c(Cl)c2)cc1 | 11.7 µM (inactive) | 9.12 µM (inactive) | 5.81 µM (inactive) | 7.1 µM (inactive) | 4.12 µM (inactive) | 13.1 µM (inactive) | 2.6 µM (inactive) | 30.6 µM (inactive) | 13.2 µM (inactive) | 4.6 | 11 µM (inactive) |  | 
CC(=O)O/C=C(/C=C/OC(C)=O)C(C/C=C(\C)C#CC=C(C)C)OC(C)=O (stereo not given) | 53.1 µM (inactive) | > 100 µM (inactive) | 19.3 µM (inactive) | 36.6 µM (inactive) | 8.51 µM (inactive) | 20.8 µM (inactive) | 21.1 µM (inactive) | > 100 µM (inactive) | > 100 µM (inactive) | 17.7 | 29.9 µM (inactive) | 36.6 µM (inactive) | 33.7 µM (inactive)
O=C(NCCCOC(=O)CCCCCCCCC(=O)OCCCNC(=O)NC(=O)c1c[nH]c(=O)[nH]c1=O)NC(=O)c1c[nH]c(=O)[nH]c1=O | > 100 µM (inactive) | > 100 µM (inactive) | > 100 µM (inactive) | > 100 µM (inactive) | > 100 µM (inactive) | > 100 µM (inactive) | > 100 µM (inactive) | > 100 µM (inactive) |  | > 100 | > 100 µM (inactive) | > 100 µM (inactive) | > 100 µM (inactive)
FC(F)(F)C1(Cl)C(Cl)(c2ccccc2)C1(Cl)c1ccccc1 (stereo not given) | 13.9 µM (inactive) | 13 µM (inactive) | 16.3 µM (inactive) | 15.2 µM (inactive) | 17.7 µM (inactive) | 15.6 µM (inactive) | 10.3 µM (inactive) | 23.1 µM (inactive) | 13.9 µM (inactive) | 13.7 | 17.8 µM (inactive) | 15.8 µM (inactive) | 14.6 µM (inactive)
Brc1nc2c3ccccc3ncn2c1Br | 28.4 µM (inactive) | 28.3 µM (inactive) | 29.9 µM (inactive) | 30.1 µM (inactive) | 22.5 µM (inactive) | 33.5 µM (inactive) | 25.3 µM (inactive) | 38.5 µM (inactive) | 26.4 µM (inactive) | 35.3 | 36.7 µM (inactive) | 37.2 µM (inactive) | 33 µM (inactive)
CCN(CC)CC1CCCCCCCCCCC1=O (stereo not given) | > 100 µM (inactive) |  | > 100 µM (inactive) | > 100 µM (inactive) | > 100 µM (inactive) | > 100 µM (inactive) | > 100 µM (inactive) |  | > 100 µM (inactive) | > 100 | > 100 µM (inactive) | > 100 µM (inactive) | > 100 µM (inactive)
CC1=C(C(=O)Nc2ccc(Cl)c(Cl)c2)C(c2ccc([N+](=O)[O-])cc2)C(C(=O)Nc2ccc(Cl)c(Cl)c2)=C(C)N1 | 1.66 µM (inactive) | 2.54 µM (inactive) | 2.77 µM (inactive) | 2.34 µM (inactive) | 0.361 µM (active) | 1.82 µM (inactive) | 0.223 µM (active) | 4.31 µM (inactive) | 3.88 µM (inactive) | 2.6 | 2.82 µM (inactive) | 2.81 µM (inactive) | 2.51 µM (inactive)
CCOC(=O)C(=C=C=C(c1ccccc1)c1ccccc1)C(=O)OCC | 20.9 µM (inactive) |  | 16.9 µM (inactive) | 20.7 µM (inactive) | 15.4 µM (inactive) | 18.4 µM (inactive) | 9.08 µM (inactive) | 23.2 µM (inactive) | 15.5 µM (inactive) | 19.6 | 16.9 µM (inactive) | 17.8 µM (inactive) | 16.8 µM (inactive)
O=C1/C(=N\O)c2ccccc2S1(=O)=O | > 100 µM (inactive) | 16.6 µM (inactive) | 69.2 µM (inactive) | > 100 µM (inactive) | 25.2 µM (inactive) | > 100 µM (inactive) | > 100 µM (inactive) | > 100 µM (inactive) | 19.4 µM (inactive) | > 100 | > 100 µM (inactive) | 61 µM (inactive) | > 100 µM (inactive)
COc1ccc2c(c1)CCCN2CCCCCCCCCCN(CCC(C)C)CCC(C)C | 10.2 µM (inactive) | 14.7 µM (inactive) | 10.2 µM (inactive) |  | 2.9 µM (inactive) | 15.3 µM (inactive) | 5.58 µM (inactive) | 19.3 µM (inactive) | 14 µM (inactive) | 8.34 | 16.8 µM (inactive) | 14.2 µM (inactive) | 14.9 µM (inactive)
C/C(=N/NC(=O)CC(=O)N(C(=O)c1ccccc1Cl)c1ccc(C)cc1)c1cc2ccccc2oc1=O | > 100 µM (inactive) | > 100 µM (inactive) | > 100 µM (inactive) | > 100 µM (inactive) | > 100 µM (inactive) | > 100 µM (inactive) |  |  | > 100 µM (inactive) | > 100 | > 100 µM (inactive) | > 100 µM (inactive) | > 100 µM (inactive)
CC1NCCc2c1[nH]c1cc(O)ccc21 (stereo not given) | > 100 µM (inactive) | > 100 µM (inactive) | > 100 µM (inactive) | > 100 µM (inactive) | > 100 µM (inactive) | > 100 µM (inactive) | > 100 µM (inactive) | > 100 µM (inactive) | > 100 µM (inactive) | > 100 | > 100 µM (inactive) | > 100 µM (inactive) | > 100 µM (inactive)
Cn1nc2ccc3nccc(N(CCO)CCO)c3c2n1 | > 100 µM (inactive) | > 100 µM (inactive) | > 100 µM (inactive) | > 100 µM (inactive) | > 100 µM (inactive) | > 100 µM (inactive) | > 100 µM (inactive) | > 100 µM (inactive) | > 100 µM (inactive) | > 100 | > 100 µM (inactive) | > 100 µM (inactive) | > 100 µM (inactive)
